The values below come from US7521540B2, “CYR61 compositions and methods” (Munin Corporation, priority 1996, dated 2009).

The subject of this experiment is NIH 3T3 fibroblasts. Briefly: Thymidine incorporation (mitogen potentiation), NIH 3T3. In kind it is cell-based, mouse. Particulars: bFGF 15 ng/ml or PDGF-BB 30 ng/ml. As for the experimental part: More specifically, NIH 3T3 fibroblast cells were plated on 24-well plates at 3×10^4 cells/well and grown in DMEM with 10% fetal bovine serum (Intergen Co., Purchase, N.Y.) for 3-4 days and incubated with medium containing 0.2% FBS for the following 48 hours. The following compounds, at the parenthetically noted final concentrations, were then added to the plated cells in fresh DMEM containing 0.2% fbs and [^3H]-thymidine (1 μCi/ml final concentration; ICN Biomedicals, Inc., Costa Mesa, Calif.): bFGF (15 ng/ml), PDGF-BB (30 ng/ml), and murine Cyr61 (0.5-5 μg/ml). These compounds were added to individual plates according to the following pattern: 1) no supplementation; 2) murine Cyr61; 3) bFGF; 4) murine Cyr61 and bFGF; 5) PDGF-BB; and 6) murine Cyr61 and PDGF. After 18-20 hours of incubation, cells were washed with PBS and fixed with 10% trichloroacetic acid. DNA was dissolved in 0.1 N NaOH and thymidine incorporation was determined. […] Without any supplements, 3T3 cells incorporated approximately 1.8×10^4 cpm of [^3H]-thymidine, in the presence or absence of Cyr61. […]
DNA synthesis for HUVE cells and NIH 3T3 fibroblasts was measured by thymidine incorporation as described previously (Kireeva et al., [1996]) with minor modifications. […] Thymidine incorporation into the trichloroacetic acid-insoluble fraction was determined after 24 hour incubation. […]
(Incorporation of labelled thymidine or its analogues reports DNA synthesis.)

As to “bFGF: Growth factor used as positive control [reference compound]”, the “[3H]-thymidine incorporation, growth factor alone” value is given as “about 1.2×10^5 cpm”.
